Reference: US9533991B2, “Inhibitors of Bruton's tyrosine kinase” (PHARMACYCLICS LLC, priority 2014, dated 2017)
pIC50: −log10 of the molar value.

Key:
Assay type in all cases: biochemical
Btk [1] = target: T1, Btk (Homo sapiens, UniProt Q06187); assay: Inhibition of a panel of kinases: Btk; details: kinase panel, Table 2
Protocol: (§1) The degree of inhibition of a panel of kinases is determined using assays similar to the kinase assay described in Example 53.

EGFR = EGFR (Homo sapiens, UniProt P00533); assay: Inhibition of a panel of kinases: EGFR; details: kinase panel, Table 2
Protocol: as §1

LCK = LCK (Homo sapiens, UniProt P06239); assay: Inhibition of a panel of kinases: LCK; details: kinase panel, Table 2
Protocol: as §1

Btk [2] = target: T1, Btk; assay: Btk in vitro inhibitory activity (Method A, B or C); design: purified from insect cells as a full-length construct containing a N-terminal 6×-His tag; His6 (N); made in house; host or cells: insect cells (baculovirus, Sf21); details: one of the methods of Example 53a, 53b, 53c
Protocol: Btk kinase activity is determined using a time-resolved fluorescence resonance energy transfer (TR-FRET) methodology. Measurements are performed in a reaction volume of 50 μL using 96-well assay plates. Kinase enzyme, inhibitor, ATP (at the Km for the kinase), and 1 μM peptide substrate (Biotin-AVLESEEELYSSARQ-NH2 (SEQ ID NO: 1)) are incubated in a reaction buffer composed of 20 mM Tris, 50 mM NaCl, MgCl2 (5-25 mM depending on the kinase), MnCl2 (0-10 mM), 1 mM DTT, 0.1 mM EDTA, 0.01% bovine serum albumin, 0.005% Tween-20, and 10% DMSO at pH 7.4 for one hour. The reaction is quenched by the addition of 1.2 equivalents of EDTA (relative to divalent cation) in 25 μL of 1× Lance buffer (Perkin-Elmer). Streptavidin-APC (Perkin-Elmer) and Eu-labeled p-Tyr100 antibody (Perkin-Elmer) in 1× Lance buffer are added in a 25 μL volume to give final concentrations of 100 nM and 2.5 nM, respectively, and the mixture is allowed to incubate for one hour. The TR-FRET signal is measured on a multimode plate reader with an excitation wavelength (λEx) of 330 nm and detection wavelengths (λEm) of 615 and 665 nm. Activity is determined by the ratio of the fluorescence at 665 nm to that at 615 nm. For each compound, enzyme activity is measured at various concentrations of compound. Negative control reactions are performed in the absence of inhibitor in replicates of six, and two no-enzyme controls are used to determine baseline fluorescence levels. Inhibition constants, Ki(app), ware obtained using the program BatchKi (Kuzmic et al. (2000), Anal. Biochem. 286:45-50). IC50s are obtained according to the equation: IC50={Ki(app)/1+[ATP]/Km^ATP)}+[E]total/2;
For all kinases, [ATP]=Km^ATP, [Btk]total=0.5 nM and [Lck]total=6 nM.
Kinase activity is measured in vitro using electrophoretic mobility shift assay. The kinase reactions are assembled in a total volume of 25 μL in 384 well plates. The reactions comprise: BTK enzyme (1 nM, N-terminal His6-tagged, recombinant, full-length, human BTK purified from baculovirus Sf21 insect cell system), inhibitor, ATP (16 μM, the apparent Km for the kinase), fluorescently labeled peptide substrate (1 μM, FAM-GEEPLYWSFPAKKK-NH2 (SEQ ID NO: 2)) in a reaction buffer composed of 100 mM HEPES, pH7.5, 5 mM MgCl2 1 mM DTT, 0.1% bovine serum albumin, 0.01% Triton X-100, and 1% DMSO. The reaction is incubated for one hour and is quenched by the addition of 45 μL of termination buffer (100 mM HEPES, pH7.5, 0.01% Triton X-100, 30 mM EDTA). The terminated reactions are analyzed using 12 channel LabChip® 3000 microfluidic detection instrument (Caliper Life Sciences). The enzymatic phosphorylation of the peptide results in a change in net charge, enabling electrophoretic separation of product from substrate peptide. As substrate and product peptides are separated, two peaks of fluorescence are observed. Change in the relative fluorescence intensity of the substrate and product peaks is the parameter measured, reflecting enzyme activity. In the presence of an inhibitor, the ratio between product and substrate is altered: the signal of the product decreases, while the signal of the substrate increases.
Activity in each sample is determined as the product to sum ratio (PSR):P/(S+P), where P is the peak height of the product peptide and S is the peak height of the substrate peptide. For each compound, enzyme activity is measured at various concentrations (12 concentrations of compound spaced by 3× dilution intervals). Negative control samples (0%−inhibition in the absence of inhibitor) and positive control samples (100%−inhibition, in the presence of 20 mM EDTA) are assembled in replicates of four and are used to calculate %−inhibition values for each inhibitor at each concentration. Percent inhibition (Pinh) is determined using following equation: […]

LCK, sequence (P06239 whole entry, species assumed): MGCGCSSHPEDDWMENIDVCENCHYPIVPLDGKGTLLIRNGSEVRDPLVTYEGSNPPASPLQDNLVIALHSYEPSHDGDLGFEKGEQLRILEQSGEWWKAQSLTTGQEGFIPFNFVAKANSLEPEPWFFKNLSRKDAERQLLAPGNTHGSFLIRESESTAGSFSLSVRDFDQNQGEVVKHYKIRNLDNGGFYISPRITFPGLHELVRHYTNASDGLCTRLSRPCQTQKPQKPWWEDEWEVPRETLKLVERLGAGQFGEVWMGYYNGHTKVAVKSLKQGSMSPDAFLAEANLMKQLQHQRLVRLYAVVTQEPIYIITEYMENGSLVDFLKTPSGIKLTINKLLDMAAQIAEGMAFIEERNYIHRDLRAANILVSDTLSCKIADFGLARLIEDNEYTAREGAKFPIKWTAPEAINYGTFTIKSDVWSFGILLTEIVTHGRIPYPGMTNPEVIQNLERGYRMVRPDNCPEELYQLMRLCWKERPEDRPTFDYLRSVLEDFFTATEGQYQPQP
T1 sequence (Q06187 whole entry): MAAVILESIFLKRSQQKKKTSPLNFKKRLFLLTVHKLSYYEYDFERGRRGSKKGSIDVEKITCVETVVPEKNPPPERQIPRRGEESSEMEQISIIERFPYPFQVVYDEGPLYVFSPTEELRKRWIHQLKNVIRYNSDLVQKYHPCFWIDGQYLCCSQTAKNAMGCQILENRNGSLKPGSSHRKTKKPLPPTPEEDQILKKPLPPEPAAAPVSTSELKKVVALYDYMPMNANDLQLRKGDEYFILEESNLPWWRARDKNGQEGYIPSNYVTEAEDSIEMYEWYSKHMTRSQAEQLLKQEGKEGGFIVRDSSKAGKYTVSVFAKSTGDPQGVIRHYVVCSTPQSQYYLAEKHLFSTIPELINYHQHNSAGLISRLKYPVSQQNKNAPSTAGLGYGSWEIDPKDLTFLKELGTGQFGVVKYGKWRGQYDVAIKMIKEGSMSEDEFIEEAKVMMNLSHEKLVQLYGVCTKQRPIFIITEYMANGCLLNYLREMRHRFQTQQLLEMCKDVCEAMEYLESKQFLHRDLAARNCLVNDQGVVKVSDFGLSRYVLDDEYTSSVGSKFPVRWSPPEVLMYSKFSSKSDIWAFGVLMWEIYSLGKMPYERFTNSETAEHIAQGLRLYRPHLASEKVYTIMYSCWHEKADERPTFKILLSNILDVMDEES
EGFR, sequence (P00533 25-1210, species assumed): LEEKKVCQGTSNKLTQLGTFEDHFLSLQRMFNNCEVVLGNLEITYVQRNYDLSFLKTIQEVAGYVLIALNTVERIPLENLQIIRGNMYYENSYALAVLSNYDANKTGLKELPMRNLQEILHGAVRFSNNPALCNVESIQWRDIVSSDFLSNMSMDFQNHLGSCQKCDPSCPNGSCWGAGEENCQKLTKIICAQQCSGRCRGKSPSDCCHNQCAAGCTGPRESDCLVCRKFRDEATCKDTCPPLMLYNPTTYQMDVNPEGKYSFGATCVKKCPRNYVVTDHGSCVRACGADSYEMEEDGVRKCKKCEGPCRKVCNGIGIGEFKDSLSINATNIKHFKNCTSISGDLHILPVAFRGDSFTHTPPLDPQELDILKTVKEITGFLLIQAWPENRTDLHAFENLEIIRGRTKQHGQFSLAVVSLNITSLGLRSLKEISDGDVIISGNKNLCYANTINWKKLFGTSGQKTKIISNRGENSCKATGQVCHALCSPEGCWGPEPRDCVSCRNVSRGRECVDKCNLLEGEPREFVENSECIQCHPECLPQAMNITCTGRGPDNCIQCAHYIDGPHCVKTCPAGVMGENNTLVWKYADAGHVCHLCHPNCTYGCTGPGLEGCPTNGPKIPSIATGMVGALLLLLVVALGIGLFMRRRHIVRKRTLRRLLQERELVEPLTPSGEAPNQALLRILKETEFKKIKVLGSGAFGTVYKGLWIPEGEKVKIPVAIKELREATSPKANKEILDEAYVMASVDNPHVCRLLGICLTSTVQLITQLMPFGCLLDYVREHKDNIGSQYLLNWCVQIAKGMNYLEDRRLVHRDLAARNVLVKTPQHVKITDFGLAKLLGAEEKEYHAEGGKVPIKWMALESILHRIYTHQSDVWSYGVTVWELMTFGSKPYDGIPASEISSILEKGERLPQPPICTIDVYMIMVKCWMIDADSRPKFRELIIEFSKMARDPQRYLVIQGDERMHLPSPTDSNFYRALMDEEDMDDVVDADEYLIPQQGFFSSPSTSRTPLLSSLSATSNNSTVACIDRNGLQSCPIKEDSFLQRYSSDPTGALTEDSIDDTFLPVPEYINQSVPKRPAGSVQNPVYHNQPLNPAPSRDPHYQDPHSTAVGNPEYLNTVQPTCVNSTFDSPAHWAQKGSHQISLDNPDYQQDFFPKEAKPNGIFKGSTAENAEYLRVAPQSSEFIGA

Structure (SMILES) | pIC50 (Btk [1]) | pIC50 (EGFR) | pIC50 (LCK) | pIC50 (Btk [2])
COCC#CC(=O)N1CC[C@@H](n2nc(-c3ccc(C(=O)Nc4ccccn4)cc3)c3c(N)ncnc32)C1 [Compound ID 18, (R)-4-(4-amino-1-(1-(4-methoxybut-2-ynoyl)pyrrolidin-3-yl)-1H-pyrazolo[3,4-d]pyrimidin-3-yl)-N-(pyridin-2-yl)benzamide] | ≥ 8.00 | ≥ 8.00 | 7.00 to 8.00 | 
Nc1ncnc2c1c(-c1ccc(C(=O)Nc3ccccn3)cc1)nn2[C@@H]1CCN(C(=O)C#CCO)C1 [Compound ID 19, (R)-4-(4-amino-1-(1-(4-hydroxybut-2-ynoyl)pyrrolidin-3-yl)-1H-pyrazolo[3,4-d]pyrimidin-3-yl)-N-(pyridin-2-yl)benzamide] | ≥ 8.00 | 7.00 to 8.00 | 6.00 to 7.00 | 
C=CC(=O)N1CCC[C@@H](n2nc(-c3ccc(C(=O)Nc4cc(C#N)ccn4)cc3)c3c(N)ncnc32)C1 [Compound ID 29, (R)-4-(1-(1-acryloylpiperidin-3-yl)-4-amino-1H-pyrazolo[3,4-d]pyrimidin-3-yl)-N-(4-cyanopyridin-2-yl)benzamide] |  |  |  | ≥ 8.00
C/C=C/C(=O)N1CC[C@@H](n2nc(-c3ccc(C(=O)Nc4cc(C)ccn4)cc3)c3c(N)ncnc32)C1 [Compound ID 32, (R,E)-4-(4-amino-1-(1-but-2-enoylpyrrolidin-3-yl)-1H-pyrazolo[3,4-d]pyrimidin-3-yl)-N-(4-methylpyridin-2-yl)benzamide] |  |  |  | ≥ 8.00
CC(C)=CC(=O)N1CC[C@@H](n2nc(-c3ccc(C(=O)Nc4cc(C)ccn4)cc3)c3c(N)ncnc32)C1 [Compound ID 33, (R)-4-(4-amino-1-(1-(3-methylbut-2-enoyl)pyrrolidin-3-yl)-1H-pyrazolo[3,4-d]pyrimidin-3-yl)-N-(4-methylpyridin-2-yl)benzamide] |  |  |  | < 8.00
Nc1ncnc2c1c(-c1ccc(C(=O)Nc3cc(C(F)(F)F)ccn3)cc1)nn2[C@@H]1CCN(C(=O)C#CCO)C1 [Compound ID 49, (R)-4-(4-amino-1-(1-(4-hydroxybut-2-ynoyl)pyrrolidin-3-yl)-1H-pyrazolo[3,4-d]pyrimidin-3-yl)-N-(4-(trifluoromethyl)pyridin-2-yl)benzamide] |  |  |  | ≥ 8.00
COCC#CC(=O)N1CC[C@@H](n2nc(-c3ccc(C(=O)Nc4cc(C(F)(F)F)ccn4)cc3)c3c(N)ncnc32)C1 [Compound ID 50, (R)-4-(4-amino-1-(1-(4-methoxybut-2-ynoyl)pyrrolidin-3-yl)-1H-pyrazolo[3,4-d]pyrimidin-3-yl)-N-(4-(trifluoromethyl)pyridin-2-yl)benzamide] |  |  |  | ≥ 8.00
N#CC1(C(=O)N2CC[C@@H](n3nc(-c4ccc(C(=O)Nc5ccccn5)cc4)c4c(N)ncnc43)C2)CC1 [Compound ID 52, (R)-4-(4-amino-1-(1-(1-cyanocyclopropanecarbonyl)pyrrolidin-3-yl)-1H-pyrazolo[3,4-d]pyrimidin-3-yl)-N-(pyridin-2-yl)benzamide] | 6.00 to 7.00 |  |  | < 8.00

More lines, now with the values ahead:

pIC50 (Btk [1]) | pIC50 (EGFR) | pIC50 (LCK) | pIC50 (Btk [2]) | Structure (SMILES)
≥ 8.00 | ≥ 8.00 | 6.00 to 7.00 | ≥ 8.00 | CC#CC(=O)N1CC[C@@H](n2nc(-c3ccc(C(=O)Nc4cc(CCC)ccn4)cc3)c3c(N)ncnc32)C1 [Compound ID 9, (R)-4-(4-amino-1-(1-but-2-ynoylpyrrolidin-3-yl)-1H-pyrazolo[3,4-d]pyrimidin-3-yl)-N-(4-propylpyridin-2-yl)benzamide]
≥ 8.00 | ≥ 8.00 | 6.00 to 7.00 | ≥ 8.00 | CC#CC(=O)N1CCC[C@@H](n2nc(-c3ccc(C(=O)Nc4ccccn4)cc3)c3c(N)ncnc32)C1 [Compound ID 10, (R)-4-(4-amino-1-(1-but-2-ynoylpiperidin-3-yl)-1H-pyrazolo[3,4-d]pyrimidin-3-yl)-N-(pyridin-2-yl)benzamide]
≥ 8.00 | 7.00 to 8.00 | 7.00 to 8.00 | ≥ 8.00 | CC#CC(=O)N1CCC[C@@H](n2nc(-c3ccc(C(=O)Nc4cc(C)ccn4)cc3)c3c(N)ncnc32)C1 [Compound ID 11, (R)-4-(4-amino-1-(1-but-2-ynoylpiperidin-3-yl)-1H-pyrazolo[3,4-d]pyrimidin-3-yl)-N-(4-methylpyridin-2-yl)benzamide]
≥ 8.00 | 6.00 to 7.00 | 7.00 to 8.00 | ≥ 8.00 | CC#CC(=O)N1CCC[C@@H](n2nc(-c3ccc(C(=O)Nc4cc(C(F)(F)F)ccn4)cc3)c3c(N)ncnc32)C1 [Compound ID 12, (R)-4-(4-amino-1-(1-but-2-ynoylpiperidin-3-yl)-1H-pyrazolo[3,4-d]pyrimidin-3-yl)-N-(4-(trifluoromethyl)pyridin-2-yl)benzamide]
≥ 8.00 | 6.00 to 7.00 | ≥ 8.00 | ≥ 8.00 | CC#CC(=O)N1CCC[C@@H](n2nc(-c3ccc(C(=O)Nc4cc(CCC)ccn4)cc3)c3c(N)ncnc32)C1 [Compound ID 13, (R)-4-(4-amino-1-(1-but-2-ynoylpiperidin-3-yl)-1H-pyrazolo[3,4-d]pyrimidin-3-yl)-N-(4-propylpyridin-2-yl)benzamide]
≥ 8.00 | 6.00 to 7.00 | 7.00 to 8.00 | ≥ 8.00 | CC#CC(=O)N1CCC[C@@H](n2nc(-c3ccc(C(=O)Nc4cc(C#N)ccn4)cc3)c3c(N)ncnc32)C1 [Compound ID 14, (R)-4-(4-amino-1-(1-but-2-ynoylpiperidin-3-yl)-1H-pyrazolo[3,4-d]pyrimidin-3-yl)-N-(4-cyanopyridin-2-yl)benzamide]
≥ 8.00 | ≥ 8.00 | 6.00 to 7.00 | ≥ 8.00 | CC#CC(=O)N1CC[C@@H](n2nc(-c3ccc(C(=O)Nc4nccs4)cc3)c3c(N)ncnc32)C1 [Compound ID 15, (R)-4-(4-amino-1-(1-but-2-ynoylpyrrolidin-3-yl)-1H-pyrazolo[3,4-d]pyrimidin-3-yl)-N-(thiazol-2-yl)benzamide]
 |  |  | ≥ 8.00 | C=CC(=O)N1CC[C@@H](n2nc(-c3ccc(C(=O)Nc4cc(C#N)ccn4)cc3)c3c(N)ncnc32)C1 [Compound ID 24, (R)-4-(1-(1-acryloylpyrrolidin-3-yl)-4-amino-1H-pyrazolo[3,4-d]pyrimidin-3-yl)-N-(4-cyanopyridin-2-yl)benzamide]
 |  |  | ≥ 8.00 | C=CC(=O)N1CCC[C@@H](n2nc(-c3ccc(C(=O)Nc4ccccn4)cc3)c3c(N)ncnc32)C1 [Compound ID 25, (R)-4-(1-(1-acryloylpiperidin-3-yl)-4-amino-1H-pyrazolo[3,4-d]pyrimidin-3-yl)-N-(pyridin-2-yl)benzamide]
 |  |  | ≥ 8.00 | C=CC(=O)N1CCC[C@@H](n2nc(-c3ccc(C(=O)Nc4cc(C(C)C)ccn4)cc3)c3c(N)ncnc32)C1 [Compound ID 28, (R)-4-(1-(1-acryloylpiperidin-3-yl)-4-amino-1H-pyrazolo[3,4-d]pyrimidin-3-yl)-N-(4-isopropylpyridin-2-yl)benzamide]
